# Legend:
# [1] = preliminary data, animal model
# [2] = system: hypophyseal adrenal system; settings: cited from earlier work
# [3] = system: microsomal cyclooxygenase system; settings: animal models; cited from earlier work
Compound,allergen component of the venom [1],potency of released cortisol relative to hydrocortisone [2] [times],strength relative to Indomethacine [3] [times]
CC[C@H](C)[C@H](NC(=O)CN)C(=O)NCC(=O)N[C@@H](C)C(=O)N[C@H](C(=O)N[C@@H](CC(C)C)C(=O)N[C@@H](CCCCN)C(=O)N[C@H](C(=O)N[C@@H](CC(C)C)C(=O)N[C@H](C(=O)N[C@H](C(=O)NCC(=O)N[C@@H](CC(C)C)C(=O)N1CCC[C@H]1C(=O)N[C@@H](C)C(=O)N[C@@H](CC(C)C)C(=O)N[C@H](C(=O)N[C@@H](CO)C(=O)N[C@@H](Cc1c[nH]c2ccccc12)C(=O)N[C@H](C(=O)N[C@@H](CCCCN)C(=O)N[C@@H](CCCNC(=N)N)C(=O)N[C@@H](CCCCN)C(=O)N[C@@H](CCCNC(=N)N)C(=O)N[C@@H](CCC(N)=O)C(=O)N[C@@H](CCC(N)=O)C(N)=O)[C@@H](C)CC)[C@@H](C)CC)[C@@H](C)O)[C@@H](C)O)C(C)C)C(C)C [Melittin],major allergen component,100,–
Adolapin [Ado lapin],–,–,70
Phospholipase A2,major allergen component,–,–

# From patent publication US20030118597A1 (priority 2001, published 2003)
